Read-outs that look alike come from different tables or passages of the source.
Legend:
[1] = Hydrodynamic radius of micelles by dynamic light scattering; assay type: physicochemical; conditions: Mean ± SD, n = 5
From the text: These values are somewhat smaller than the CMC of DDM, which indicates a strong tendency of the new agents to self-assemble, and which can be advantageous for IMP handling because detrimental levels of non-micellar amphiphile can be avoided. Table 1 provides the hydrodynamic radius (Rh) of the micelles formed by each amphiphile, as determined by dynamic light scattering (DLS). The micelles formed by GLC amphiphiles are slightly smaller than those formed by DDM, while the micelles formed by GDN are slightly larger.

[2] = Critical micelle concentration (fluorescent dye solubilization); assay type: physicochemical
From the text: The “Critical Micelle Concentration” (CMC) refers to the concentration of a detergent (e.g., an amphiphile as described herein) in an aqueous solution at which the detergent molecules self-assemble into micelles. Below the CMC, detergents are mostly monomeric; above the CMC, micelle concentration increases linearly with detergent concentration. The CMC is dependent upon many factors and is detergent-specific. The CMC of a detergent can be determined experimentally by measuring the solubilization of a water-insoluble dye or fluorophore while varying the concentration of detergent. A CMC may also be determined by measuring the diminution of the surface tension of an aqueous solution as a function of detergent concentration (CMCs determined by either method correlate with each other). The CMC is determined by extrapolating the plot of solubilization vs. concentration (or surface tension vs. concentration) in the two linear regions above and below the CMC. Where the two lines intersect is the CMC. The CMC can also be determined by the method of Nugebauer, J. M. (1990), Methods in Enzymology, 182:239-253.
The four compounds were readily prepared on a multi-gram scale (see Examples 1 and 2 below, and FIGS. 13-15), as is necessary if they are to serve as research tools. All four are highly soluble in aqueous solution (>20 wt %) and have relatively low critical micelle concentrations (CMC; determined by fluorescent dye solubilization).

wild type β2AR (β2AR WT) = target: T1, wild type β2AR (β2AR WT) (Homo sapiens, UniProt P07550); experiment: β2AR WT activity after extraction ([3H]-dihydroalprenolol binding); assay type: biochemical
T1 construct: made in house; host or cells: Sf9 insect cells (baculovirus); lysed cells and membranes extracted directly with amphiphile
T1 sequence (P07550 whole entry): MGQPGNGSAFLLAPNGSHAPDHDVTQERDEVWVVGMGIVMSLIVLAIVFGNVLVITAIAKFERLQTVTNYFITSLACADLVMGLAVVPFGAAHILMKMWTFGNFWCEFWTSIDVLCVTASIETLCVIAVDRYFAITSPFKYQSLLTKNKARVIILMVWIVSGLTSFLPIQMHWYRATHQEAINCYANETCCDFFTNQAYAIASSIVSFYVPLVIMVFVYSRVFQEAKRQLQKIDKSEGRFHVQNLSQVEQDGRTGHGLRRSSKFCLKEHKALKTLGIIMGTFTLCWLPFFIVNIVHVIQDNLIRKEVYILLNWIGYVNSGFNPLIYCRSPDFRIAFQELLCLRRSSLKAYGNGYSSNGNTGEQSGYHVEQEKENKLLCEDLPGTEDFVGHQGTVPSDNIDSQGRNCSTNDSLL
Description: In the examples discussed above, conventional detergents such as DDM were used to extract IMPs from the membrane, and then in most cases the solution of detergent-solubilized protein was diluted with amphiphile-containing solutions to evaluate the new agents. With this approach it is possible that the small amount of residual conventional detergent could affect protein stability. To exclude this possibility, GLC-3 and GDN were used to extract wild type β2AR (β2AR WT) (Kobilka, Trends in Pharmacological Sciences 2011, 32, 213-218) from the membrane. Receptor activity was measured via a binding assay involving the antagonist [^3H]-dihydroalprenolol. […] GDN is therefore highly suitable for GPCR extraction.
(§1) A gene encoding amino-terminally FLAG epitope tagged β2AR was expressed in Sf9 cells by baculovirus, with no ligand present during culture. Cells were infected at a density of 4×10^6 cells/mL and then cultured for 48 hours prior to harvesting by centrifugation. Cells were resuspended and lysed by osmotic shock with a low ionic strength buffer (20 mM Tris pH 7.5, 1 mM EDTA). The lysed cells were aliquoted 35 mg per aliquot, then frozen. For extraction tests, 300 μL of solubilization buffer (20 mM HEPES pH 7.5, 100 mM NaCl) containing each amphiphile was added to each aliquot, which was then homogenized by pipet followed by grinding with a glass dounce tissue homogenizer. After two-hour incubation at 4° C., samples were centrifuged at maximum speed in a tabletop microcentrifuge to pellet insoluble material. Supernatant was removed and assayed for protein concentration by DC protein assay (Bio-Rad).
The amount of functional receptor was quantified by incubation for 1 hour with 10 nM 3H dihydroalprenolol. Samples were then separated by gel filtration over G-50 resin and radioactivity was quantified by liquid scintillation. Nonspecific binding was measured in the presence of 10 μM alprenolol. Assays were performed in triplicate at time points indicated. G-50 filtration was performed in buffer containing 20 mM HEPES pH 7.5, 100 mM NaCl, 10-fold CMC of the detergent tested. All binding assays were performed with ice cold buffers.

[3] = tested on: δ-opioid receptor-T4L fusion (δOR-T4L); experiment: δOR-T4L activity after solubilization ([3H]-diprenorphine binding); assay type: biochemical; conditions: extracted with 1.0 wt % of amphiphile
From the text: We turned to a δ-opioid receptor-T4L fusion (δOR-T4L), another GPCR, to compare GDN with the recently reported amphiphile MNG-3 (P. S. Chae, et al., Nat. Methods 2010, 7, 1003-1008), which has proven to be essential for crystallization of several other GPCR constructs (Rasmussen, et al., Nature 2011, 469, 236-240; Rosenbaum, et al., Nature 2011, 469, 175-180; Rasmussen, et al., Nature 2011, 477, 540-541; Kruse, et al., Nature 2012, 482, 552-556; Haga, et al., Nature 2012, 482, 547-551). […] The ability of the new amphiphiles to stabilize membrane proteins thus allows for the ability to perform analyses and structural studies that could not be performed with other detergents such as DDM because harsher detergents (e.g., DDM) can remove important lipid moieties from the proteins, causing them to denature and rapidly loose activity.
FLAG epitope tagged δOR-T4L was expressed in Sf9 insect cells using baculovirus particles generated by the pFastBac vector system (Invitrogen). Insect cells were infected and cultured as for the β2AR and cells were lysed by osmotic shock as done for cells expressing β2AR. Lysed cells were used for extraction tests by adding 40 mg of cells to 200 μL of solubilization buffer (20 mM HEPES pH 7.5, 100 mM NaCl) containing each amphiphile. […] The amount of functional receptor after solubilization was quantified by incubation for 1 hour with 10 nM 3H diprenorphine. […]

β2AR WT = target: T2, β2AR WT (Homo sapiens, UniProt P07550); experiment: Extraction of β2AR WT from insect cell membranes; conditions: 1 wt %; western blotting
T2 construct: made in house; host or cells: Sf9 insect cells (baculovirus); lysed cells and membranes extracted directly with amphiphile
T2 sequence (P07550 whole entry): as above
Description: (§2) The favorable MelB extraction performance of GDN led to the examination of this amphiphile for extraction of other IMPs. […] DDM and GDN were used to extract a CMP-Sia fusion protein bearing green fluorescent protein (GFP) at the C-terminus, after expression in Saccharomyces cerevisiae; the amount of solubilized protein was estimated by total fluorescence. GDN (2 wt %), DDM (1 wt %) and OG (1 wt %) gave ˜70%, ˜80% and ˜50% extraction yields, respectively.
(§3) The procedure was performed according to the protocol reported by Chae and coworkers (Nat. Methods 2010, 7, 1003-1008).
as §1, with “Supernatant was removed and assayed for protein concentration by DC protein assay (Bio-Rad).” left out

[4] = target: T3, CMP-Sia fusion protein bearing green fluorescent protein (GFP) (Mus musculus, UniProt Q61420); experiment: CMP-Sia-GFP fusion solubilization (fluorescence); conditions: 1 wt %, 1 hr at 4° C., total fluorescence
T3 construct: made in house; host or cells: Saccharomyces cerevisiae FGY217
Description: as §2, §3
CMP-Sia was expressed as a fusion protein with a C-terminal GFP in FGY217 Saccharomyces cerevisiae cells. Cell lysis was conducted by using a cell disrupter (Constant Systems) and the protein samples were subjected to centrifugation at 15,000 g for 10 mins to remove unbroken cells and debris. Subsequently, the membranes were harvested by ultracentrifugation at 150,000 g for 45 min. The membranes were resuspended in 50 mM Tris-HCl (pH 7.6), 1 mM EDTA, 0.6 M sorbitol and the protein concentration was estimated using a BCA kit (Pierce). The membranes were incubated with OG or DDM at 1.0%, or GDN at 2.0% for 1 hr at 4° C. A fluorescence value was measured for each sample before and after ultracentrifugation at 150,000 g for 1 h. The solubilization efficiency was calculated via the fluorescence measurements of the soluble supernatant/the total sample.

[5] = stated in the bR protocol; cited from earlier work

Row | Structure (SMILES) | Rh (nm), hydrodynamic radius of micelles [1] [nm] | CMC [2] [µM] | CMC (wt %) [2] [wt %] | also measured
1 | CO[C@@H]1CC[C@@]2(C)[C@H](CC[C@@H]3[C@@H]2CC[C@]2(C)[C@@H]([C@H](C)CCC(=O)NC(CO[C@@H]4OC(CO)C(O[C@@H]5OC(CO)[C@@H](O)[C@H](O)C5O)[C@@H](O)C4O)CO[C@@H]4OC(CO)[C@@H](O[C@H]5OC(CO)[C@@H](O)[C@H](O)C5O)[C@H](O)C4O)CC[C@@H]32)C1 (stereo partly drawn) [GLC-1] | 3.22 ± 0.03 | ~52 | ~0.006 | –
2 | CO[C@@H]1CC[C@@]2(C)[C@H](CC[C@@H]3[C@@H]2CC[C@]2(C)C(C(C)CCCC(CO[C@@H]4OC(CO)C(O[C@@H]5OC(CO)[C@@H](O)[C@H](O)C5O)[C@@H](O)C4O)CO[C@@H]4OC(CO)[C@@H](O[C@H]5OC(CO)[C@@H](O)[C@H](O)C5O)[C@H](O)C4O)CC[C@@H]32)C1 (stereo partly drawn) [GLC-3] | 3.27 ± 0.08 | ~7.1 | ~0.00077 | β2AR WT initial activity (wild type β2AR (β2AR WT); extracted with 1 wt % or 2 wt % amphiphile, [3H]-dihydroalprenolol binding): initial activity similar to that of DDM; β2AR WT activity over 72 hours (wild type β2AR (β2AR WT); solubilized samples stored at 4° C.): activity was maintained over 72 hours
3 | CCCCCCCCCCC(CCCCCCCCCC)(CO[C@@H]1O[C@H](CO)[C@@H](O[C@H]2O[C@H](CO)[C@@H](O)[C@H](O)[C@H]2O)[C@H](O)[C@H]1O)CO[C@@H]1O[C@H](CO)[C@@H](O[C@H]2O[C@H](CO)[C@@H](O)[C@H](O)[C@H]2O)[C@H](O)[C@H]1O [MNG-3, reference compound] | – | – | – | δOR-T4L ligand binding activity after solubilization [3]: higher activity than DDM-solubilized δOR-T4L
4 | CCCCCCCCO[C@@H]1O[C@H](CO)[C@@H](O)[C@H](O)[C@H]1O [OG, octyl-β-D-glucoside, reference compound] | – | – | – | β2AR WT detected after extraction (β2AR WT): only a very small amount of β2AR WT was detected; CMP-Sia-GFP extraction yield [4]: ~50%
5 | CCCCCCCCS[C@@H]1O[C@H](CO)[C@@H](O)[C@H](O)[C@H]1O [OTG, octyl-β-D-thioglucoside] | – | – | – | CMC [5]: 0.28 wt %

Reference: US9556217B2, “Amphiphilic compounds” (WISCONSIN ALUMNI RESEARCH FOUNDATION, priority 2012, dated 2017)
